In ChEMBL document CHEMBL1151350, “Uterotonic effect of Evodia rutaecarpa alkaloids” (1980) one finds Activity data, which are given here for three molecules.

Active and inactive are the calls of the source. No cut-off for these calls is given here. Where only a bound is given, the exact number is not on record here.

The test system of assay [1] is Rattus norvegicus. Put plainly: In vivo uterotonic activity in iv dosed estrous Sprague-Dawley rat uterus assessed as contraction by sponge tipped catheter method. Type of assay: functional.
Assay [2] is filed under the species Rattus norvegicus. As to the kind of experiment: In virto uterotonic activity in Sprague-Dawley rat uterus assessed as contraction in presence of methysergide. Format: functional, tissue-based.
Assay [3] in a line: In virto uterotonic activity in Sprague-Dawley rat uterus expressed as g-force unit. Format: functional.
Assay [4] is filed under the species Rattus norvegicus. Put plainly: In virto uterotonic activity in Sprague-Dawley rat uterus assessed as contraction in presence of atropine. Type of assay: functional, tissue-based.
A short description of assay [5]: In virto uterotonic activity in Sprague-Dawley rat uterus assessed as contraction. Type of assay: functional.
Assay [6] relates to Rattus norvegicus. As to the kind of experiment: In vivo uterotonic activity in estrous Sprague-Dawley rat uterus assessed as maximum peak contraction at 2400 ug/kg, iv within 20 mins by sponge tipped catheter method. Format: functional.
For assay [7], the species on record is Rattus norvegicus. As to the kind of experiment: In virto uterotonic activity in Sprague-Dawley rat uterus assessed as contraction at 20 ug/ml. Format: functional, tissue-based.

Regarding `C[n+]1c2n(c(=O)c3ccccc31)CCc1c-2[nH]c2ccccc12.[Cl-]` [DEHYDROEVODIAMINE CHLORIDE], the Activity entry with Rattus norvegicus [1] is “Dose-dependent effect”; in the assay on Rattus norvegicus [1] (record 2) it was 80 µg/kg; in assay [3], 2.15 g; in assay [5] it was 0.6 µg/mL; in the assay on Rattus norvegicus [6] it was 25.3 mmHg. The outcome in the assay filed under Rattus norvegicus [2] and in the assay filed under Rattus norvegicus [4] was Active.

For `Cl.O=c1c2ccccc2nc2n1CCc1c-2[nH]c2ccccc12` [RUTAECARPINE HYDROCHLORIDE], the Activity in assay [3] is 0.72 g; in assay [5] it was <1 µg/mL.

As for `CN1c2ccccc2C(=O)N2CCc3c([nH]c4ccccc34)[C@@H]21`, in the assay listed under Rattus norvegicus [7], the result was inactive.
